Measurements as given in ChEMBL document CHEMBL4507277.

Tests used:
[1] = biological target: T1, D(4) dopamine receptor (Homo sapiens) (UniProt P21917); conditions: Compound concentration 10.0 uM
T1 sequence (whole entry): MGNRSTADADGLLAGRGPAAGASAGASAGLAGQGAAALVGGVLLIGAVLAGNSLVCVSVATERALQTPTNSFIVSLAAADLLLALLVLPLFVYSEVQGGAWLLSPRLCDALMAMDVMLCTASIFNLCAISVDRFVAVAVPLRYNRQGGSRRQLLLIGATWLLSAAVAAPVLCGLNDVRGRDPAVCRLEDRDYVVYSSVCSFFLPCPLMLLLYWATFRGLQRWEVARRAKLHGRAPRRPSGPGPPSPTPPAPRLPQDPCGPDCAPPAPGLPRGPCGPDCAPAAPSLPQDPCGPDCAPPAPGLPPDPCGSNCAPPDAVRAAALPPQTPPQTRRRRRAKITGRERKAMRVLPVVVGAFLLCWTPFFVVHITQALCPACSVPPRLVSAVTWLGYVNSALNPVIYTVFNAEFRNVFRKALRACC

[2] = biological target: Rhodopsin kinase GRK7 (Homo sapiens) (UniProt Q8WTQ7); conditions: Compound concentration 1000.0 nM
[3] = biological target: Myosin light chain kinase, smooth muscle (Homo sapiens) (UniProt Q15746); conditions: Compound concentration 1000.0 nM
[4] = biological target: Gamma-aminobutyric acid receptor subunit beta-1 (Homo sapiens) (UniProt P18505); conditions: Rattus norvegicus; Compound concentration 10.0 uM
[5] = biological target: Dual specificity mitogen-activated protein kinase kinase 4 (Homo sapiens) (UniProt P45985); conditions: Compound concentration 1000.0 nM
[6] = biological target: Androgen receptor (Rattus norvegicus) (UniProt P15207); conditions: Compound concentration 10.0 uM
[7] = biological target: Platelet-activating factor receptor (Homo sapiens) (UniProt P25105); conditions: Compound concentration 10.0 uM
[8] = tested on: Phosphatidylinositol 4,5-bisphosphate 3-kinase catalytic subunit alpha isoform (Homo sapiens), P42336 [I800L]; conditions: Compound concentration 1000.0 nM
[9] = biological target: Serine/threonine-protein kinase N1 (Homo sapiens) (UniProt Q16512); conditions: Compound concentration 1000.0 nM
[10] = biological target: Interleukin-1 receptor-associated kinase 4 (Homo sapiens) (UniProt Q9NWZ3); conditions: Compound concentration 1000.0 nM
[11] = biological target: Type-1 angiotensin II receptor (Oryctolagus cuniculus) (UniProt P34976); conditions: Homo sapiens; Compound concentration 10.0 uM
[12] = biological target: Ribosomal protein S6 kinase alpha-3 (Homo sapiens) (UniProt P51812); conditions: Compound concentration 1000.0 nM
[13] = biological target: Cyclin-dependent kinase 9 (Homo sapiens) (UniProt P50750); conditions: Compound concentration 1000.0 nM
[14] = biological target: Casein kinase I isoform delta (Homo sapiens) (UniProt P48730); conditions: Compound concentration 1000.0 nM
[15] = biological target: Beta-1 adrenergic receptor (Homo sapiens) (UniProt P08588); conditions: Compound concentration 10.0 uM
[16] = biological target: Sodium-dependent dopamine transporter (Homo sapiens) (UniProt Q01959); conditions: Compound concentration 10.0 uM
[17] = biological target: Sigma receptor (Homo sapiens) (UniProt Q99720+Q5BJF2); conditions: Cavia porcellus; Compound concentration 10.0 uM
[18] = biological target: Serine/threonine-protein kinase SBK1 (Homo sapiens) (UniProt Q52WX2); conditions: Compound concentration 1000.0 nM
[19] = biological target: T2, 5-hydroxytryptamine receptor 3A (Homo sapiens) (UniProt P46098); conditions: Compound concentration 10.0 uM
T2 sequence (whole entry): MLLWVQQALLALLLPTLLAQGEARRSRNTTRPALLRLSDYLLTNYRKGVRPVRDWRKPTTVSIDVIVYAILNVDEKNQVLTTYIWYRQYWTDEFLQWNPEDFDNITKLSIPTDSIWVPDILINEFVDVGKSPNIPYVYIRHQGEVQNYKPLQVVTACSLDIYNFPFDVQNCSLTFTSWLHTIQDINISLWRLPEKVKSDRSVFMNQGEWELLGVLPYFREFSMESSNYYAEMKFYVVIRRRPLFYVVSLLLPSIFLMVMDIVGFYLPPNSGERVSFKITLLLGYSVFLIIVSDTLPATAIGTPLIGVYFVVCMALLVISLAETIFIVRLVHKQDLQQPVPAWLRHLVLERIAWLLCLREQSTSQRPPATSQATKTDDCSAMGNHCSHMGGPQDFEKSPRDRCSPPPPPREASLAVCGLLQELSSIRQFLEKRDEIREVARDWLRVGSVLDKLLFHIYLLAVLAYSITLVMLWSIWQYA

[20] = biological target: Tyrosine-protein kinase Blk (Homo sapiens) (UniProt P51451); conditions: Compound concentration 1000.0 nM
[21] = biological target: ATP-sensitive inward rectifier potassium channel 1 isoform X1 (Mesocricetus auratus) (UniProt A0A1U8CU73); conditions: Compound concentration 10.0 uM
[22] = tested on: Phosphatidylinositol 4,5-bisphosphate 3-kinase catalytic subunit alpha isoform (Homo sapiens), P42336 [E542K]; conditions: Compound concentration 1000.0 nM
[23] = biological target: Receptor tyrosine-protein kinase erbB-3 (Homo sapiens) (UniProt P21860); conditions: Compound concentration 1000.0 nM
[24] = biological target: Histamine H2 receptor (Homo sapiens) (UniProt P25021); conditions: Compound concentration 10.0 uM
[25] = biological target: Serine/threonine-protein kinase WNK1 (Homo sapiens) (UniProt Q9H4A3); conditions: Compound concentration 1000.0 nM
[26] = tested on: Tyrosine-protein kinase ABL1 (Homo sapiens), P00519 [F317I]; conditions: Compound concentration 1000.0 nM
[27] = biological target: Nitric oxide synthase 3 (Rattus norvegicus) (UniProt Q62600); conditions: Compound concentration 10.0 uM
[28] = biological target: Sodium-dependent serotonin transporter (Homo sapiens) (UniProt P31645); conditions: Compound concentration 10.0 uM
[29] = biological target: Bone morphogenetic protein receptor type-1A (Homo sapiens) (UniProt P36894); conditions: Compound concentration 1000.0 nM
[30] = biological target: Ephrin type-A receptor 8 (Homo sapiens) (UniProt P29322); conditions: Compound concentration 1000.0 nM
[31] = biological target: Cyclin-dependent kinase-like 5 (Homo sapiens) (UniProt O76039); conditions: Compound concentration 1000.0 nM
[32] = tested on: Epidermal growth factor receptor (Homo sapiens), P00533 [UNDEFINED MUTATION]; conditions: Compound concentration 1000.0 nM

Measured: residual activity

Sequence of Serine/threonine-protein kinase WNK1 (Homo sapiens) (Q9H4A3 whole entry, looked up): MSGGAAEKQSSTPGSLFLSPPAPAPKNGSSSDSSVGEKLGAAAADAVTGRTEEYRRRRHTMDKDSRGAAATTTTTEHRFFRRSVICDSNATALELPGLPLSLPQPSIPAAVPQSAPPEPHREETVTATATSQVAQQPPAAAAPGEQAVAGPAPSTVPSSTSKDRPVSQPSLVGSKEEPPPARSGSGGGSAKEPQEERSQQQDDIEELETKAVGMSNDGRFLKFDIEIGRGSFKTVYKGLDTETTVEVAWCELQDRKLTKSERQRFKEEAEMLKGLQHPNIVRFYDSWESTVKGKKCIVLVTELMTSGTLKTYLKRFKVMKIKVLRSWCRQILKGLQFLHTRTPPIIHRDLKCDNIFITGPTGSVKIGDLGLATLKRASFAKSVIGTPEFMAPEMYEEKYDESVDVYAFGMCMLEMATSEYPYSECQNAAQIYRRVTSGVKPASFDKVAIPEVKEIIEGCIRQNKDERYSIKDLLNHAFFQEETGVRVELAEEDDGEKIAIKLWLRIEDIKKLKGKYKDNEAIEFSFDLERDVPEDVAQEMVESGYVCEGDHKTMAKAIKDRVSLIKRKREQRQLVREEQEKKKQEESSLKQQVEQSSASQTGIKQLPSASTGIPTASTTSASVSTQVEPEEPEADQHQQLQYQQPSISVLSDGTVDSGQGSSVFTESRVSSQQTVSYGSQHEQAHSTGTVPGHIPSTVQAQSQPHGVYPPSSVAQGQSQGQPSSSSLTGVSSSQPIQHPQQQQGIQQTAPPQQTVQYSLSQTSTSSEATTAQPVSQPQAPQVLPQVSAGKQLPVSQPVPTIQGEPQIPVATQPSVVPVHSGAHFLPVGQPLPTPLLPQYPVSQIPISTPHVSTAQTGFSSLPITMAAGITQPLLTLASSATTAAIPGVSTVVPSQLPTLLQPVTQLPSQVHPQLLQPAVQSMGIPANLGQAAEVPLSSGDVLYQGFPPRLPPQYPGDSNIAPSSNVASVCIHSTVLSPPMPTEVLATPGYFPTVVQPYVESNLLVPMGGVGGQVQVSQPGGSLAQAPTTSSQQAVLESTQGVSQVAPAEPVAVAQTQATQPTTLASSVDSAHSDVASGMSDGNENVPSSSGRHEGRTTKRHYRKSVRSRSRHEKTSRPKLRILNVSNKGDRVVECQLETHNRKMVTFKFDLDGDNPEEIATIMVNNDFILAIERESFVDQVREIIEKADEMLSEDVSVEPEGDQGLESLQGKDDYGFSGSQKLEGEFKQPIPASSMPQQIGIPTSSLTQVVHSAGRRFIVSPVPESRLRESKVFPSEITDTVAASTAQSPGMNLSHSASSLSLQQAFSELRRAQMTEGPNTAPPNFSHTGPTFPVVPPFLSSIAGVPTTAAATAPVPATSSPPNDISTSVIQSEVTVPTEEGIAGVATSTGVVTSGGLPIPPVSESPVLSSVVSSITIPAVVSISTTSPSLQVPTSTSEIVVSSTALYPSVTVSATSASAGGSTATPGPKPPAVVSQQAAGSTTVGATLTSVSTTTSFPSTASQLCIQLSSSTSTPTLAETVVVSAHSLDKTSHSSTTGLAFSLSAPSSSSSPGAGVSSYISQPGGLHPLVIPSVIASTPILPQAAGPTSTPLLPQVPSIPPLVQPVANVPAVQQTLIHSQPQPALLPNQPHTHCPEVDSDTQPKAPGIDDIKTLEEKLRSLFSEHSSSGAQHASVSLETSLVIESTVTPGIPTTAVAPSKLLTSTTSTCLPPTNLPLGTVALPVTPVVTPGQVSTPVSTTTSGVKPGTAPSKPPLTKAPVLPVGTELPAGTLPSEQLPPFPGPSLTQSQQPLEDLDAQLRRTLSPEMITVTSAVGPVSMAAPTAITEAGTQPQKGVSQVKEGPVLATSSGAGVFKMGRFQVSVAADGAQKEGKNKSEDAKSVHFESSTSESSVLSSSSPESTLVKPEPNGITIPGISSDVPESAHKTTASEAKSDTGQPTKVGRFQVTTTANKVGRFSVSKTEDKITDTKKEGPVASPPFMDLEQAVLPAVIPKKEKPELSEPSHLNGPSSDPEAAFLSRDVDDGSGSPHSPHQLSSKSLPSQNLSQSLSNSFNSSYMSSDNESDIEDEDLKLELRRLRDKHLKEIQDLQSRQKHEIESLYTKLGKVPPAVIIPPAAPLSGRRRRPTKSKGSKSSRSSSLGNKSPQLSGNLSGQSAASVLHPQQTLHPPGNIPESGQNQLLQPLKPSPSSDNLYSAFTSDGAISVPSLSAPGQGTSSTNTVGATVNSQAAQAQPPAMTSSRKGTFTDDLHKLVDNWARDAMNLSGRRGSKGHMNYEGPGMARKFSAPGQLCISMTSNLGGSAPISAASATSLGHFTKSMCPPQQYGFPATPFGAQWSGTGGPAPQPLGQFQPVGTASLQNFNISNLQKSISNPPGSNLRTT
Sequence of Bone morphogenetic protein receptor type-1A (Homo sapiens) (P36894 whole entry): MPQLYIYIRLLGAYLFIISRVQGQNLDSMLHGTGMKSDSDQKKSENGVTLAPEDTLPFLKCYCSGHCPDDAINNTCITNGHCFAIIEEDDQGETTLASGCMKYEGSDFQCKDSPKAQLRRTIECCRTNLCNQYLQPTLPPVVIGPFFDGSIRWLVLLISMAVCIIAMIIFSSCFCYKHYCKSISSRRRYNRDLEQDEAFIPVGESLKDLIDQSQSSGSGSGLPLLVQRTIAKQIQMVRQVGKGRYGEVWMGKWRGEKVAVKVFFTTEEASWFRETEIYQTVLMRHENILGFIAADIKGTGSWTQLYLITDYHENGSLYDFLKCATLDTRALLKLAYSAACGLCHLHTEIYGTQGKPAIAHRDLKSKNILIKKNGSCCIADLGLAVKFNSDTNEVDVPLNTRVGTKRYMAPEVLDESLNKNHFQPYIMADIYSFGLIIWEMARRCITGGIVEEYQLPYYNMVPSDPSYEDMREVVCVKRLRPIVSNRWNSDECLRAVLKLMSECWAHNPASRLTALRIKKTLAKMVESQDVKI
Sequence of Ribosomal protein S6 kinase alpha-3 (Homo sapiens) (P51812 whole entry): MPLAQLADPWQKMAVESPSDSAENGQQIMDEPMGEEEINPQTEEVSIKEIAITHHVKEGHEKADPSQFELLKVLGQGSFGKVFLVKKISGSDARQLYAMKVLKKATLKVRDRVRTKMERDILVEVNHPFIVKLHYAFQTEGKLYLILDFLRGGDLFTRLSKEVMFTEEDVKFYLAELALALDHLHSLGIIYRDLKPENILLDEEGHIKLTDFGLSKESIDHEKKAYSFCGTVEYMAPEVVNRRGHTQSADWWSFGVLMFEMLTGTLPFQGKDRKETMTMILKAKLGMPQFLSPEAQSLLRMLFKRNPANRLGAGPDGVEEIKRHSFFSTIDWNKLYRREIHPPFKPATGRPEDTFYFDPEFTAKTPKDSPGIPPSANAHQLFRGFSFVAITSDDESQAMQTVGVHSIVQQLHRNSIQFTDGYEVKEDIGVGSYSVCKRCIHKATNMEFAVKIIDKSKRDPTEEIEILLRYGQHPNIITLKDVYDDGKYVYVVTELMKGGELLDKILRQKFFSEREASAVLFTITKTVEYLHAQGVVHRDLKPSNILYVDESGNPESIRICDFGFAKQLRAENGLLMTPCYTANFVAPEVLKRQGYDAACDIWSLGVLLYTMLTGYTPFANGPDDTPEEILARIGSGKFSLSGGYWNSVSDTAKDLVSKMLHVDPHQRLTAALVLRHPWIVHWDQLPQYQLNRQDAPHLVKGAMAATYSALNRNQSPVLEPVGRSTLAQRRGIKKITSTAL
Sequence of Casein kinase I isoform delta (Homo sapiens) (P48730 whole entry, looked up, canonical isoform): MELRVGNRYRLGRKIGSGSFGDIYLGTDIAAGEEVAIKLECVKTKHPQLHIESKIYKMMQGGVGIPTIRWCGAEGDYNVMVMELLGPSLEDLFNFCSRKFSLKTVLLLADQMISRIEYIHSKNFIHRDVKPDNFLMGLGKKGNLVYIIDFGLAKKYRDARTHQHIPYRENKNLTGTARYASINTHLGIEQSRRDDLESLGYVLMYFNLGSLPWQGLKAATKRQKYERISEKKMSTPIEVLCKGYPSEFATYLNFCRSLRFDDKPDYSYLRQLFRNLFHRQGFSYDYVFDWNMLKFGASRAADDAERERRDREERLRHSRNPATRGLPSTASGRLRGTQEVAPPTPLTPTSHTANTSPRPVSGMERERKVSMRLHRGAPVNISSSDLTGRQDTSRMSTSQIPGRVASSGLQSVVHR
Sequence of Cyclin-dependent kinase-like 5 (Homo sapiens) (O76039 whole entry): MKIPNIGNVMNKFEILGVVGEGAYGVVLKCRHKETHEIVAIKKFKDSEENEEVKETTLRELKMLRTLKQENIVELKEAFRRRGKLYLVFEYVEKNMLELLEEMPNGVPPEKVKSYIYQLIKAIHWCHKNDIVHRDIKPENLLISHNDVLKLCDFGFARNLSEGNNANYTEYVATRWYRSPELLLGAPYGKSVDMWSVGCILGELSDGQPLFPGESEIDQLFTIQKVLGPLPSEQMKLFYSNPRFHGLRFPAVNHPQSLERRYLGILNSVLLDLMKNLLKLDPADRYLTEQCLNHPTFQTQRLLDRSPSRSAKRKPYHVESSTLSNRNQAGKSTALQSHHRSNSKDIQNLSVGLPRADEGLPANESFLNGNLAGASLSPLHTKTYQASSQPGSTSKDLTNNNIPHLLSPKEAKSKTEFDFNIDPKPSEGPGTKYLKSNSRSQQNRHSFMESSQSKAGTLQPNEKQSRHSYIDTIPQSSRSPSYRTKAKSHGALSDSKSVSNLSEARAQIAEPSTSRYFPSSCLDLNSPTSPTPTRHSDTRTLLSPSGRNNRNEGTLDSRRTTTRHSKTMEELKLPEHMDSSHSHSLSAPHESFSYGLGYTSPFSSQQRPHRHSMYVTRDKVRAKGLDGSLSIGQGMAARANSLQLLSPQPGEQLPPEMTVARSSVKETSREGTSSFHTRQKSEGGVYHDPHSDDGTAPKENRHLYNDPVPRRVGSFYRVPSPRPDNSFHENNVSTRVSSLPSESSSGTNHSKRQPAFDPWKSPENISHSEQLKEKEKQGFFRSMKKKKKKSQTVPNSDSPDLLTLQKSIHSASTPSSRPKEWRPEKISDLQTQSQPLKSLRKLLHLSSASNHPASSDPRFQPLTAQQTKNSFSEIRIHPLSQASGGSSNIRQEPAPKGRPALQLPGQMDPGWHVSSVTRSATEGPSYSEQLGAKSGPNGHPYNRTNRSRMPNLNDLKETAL

CCS(=O)(=O)c1cc2cc(C[C@](O)(CC(C)(C)c3ccc(F)cc3C(N)=O)C(F)(F)F)[nH]c2cn1
inactive: [1] 104% | [2] 100% | [3] 96% | [4] 75% | [5] 100% | [6] 101% | [7] 95% | [8] 73% | [9] 100% | [10] 100% | [11] 96% | [12] 93% | [13] 100% | [14] 96% | [15] 90% | [16] 106% | [17] 86% | [18] 87% | [19] 100% | [20] 100% | [21] 104% | [22] 66% | [23] 100% | [24] 96% | [25] 97% | [26] 95% | [27] 99% | [28] 99% | [29] 100% | [30] 82% | [31] 100% | [32] 89%

CCS(=O)(=O)c1cc2cc(C[C@@](O)(CC(C)(C)c3ccc(F)cc3C(N)=O)C(F)(F)F)[nH]c2cn1
inactive: [2] 95% | [3] 93% | [5] 100% | [8] 70% | [9] 85% | [10] 100% | [12] 100% | [13] 78% | [14] 100% | [18] 94% | [20] 100% | [22] 74% | [23] 100% | [25] 90% | [26] 78% | [29] 100% | [30] 100% | [31] 77% | [32] 94%
